The source made the active and inactive calls. Rule for the calls: active = viability on the fitted dose curve at most 10% of control; inactive = the rest.
Test system: ASPS-1 complex tumor spheroids, viability
Experiment: Anticancer human tumor ASPS-1 cell line growth inhibition;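 note: spheroids exposed to agents for 7 days after 3 days of growth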;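 for viability, T/C: 100% = DMSO vehicle treated spheroids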
Conditions: for IC50: curve of first compound; for viability, T/C: stronger effect = lower value
Text: Multicellular complex tumor spheroid response to DNA repair inhibitors in combination with DNA-damaging drugs
This study explores the anticancer activities of DNA-damaging drugs and inhibitors of DNA damage repair, both as single agents and in combinations. Complex tumor spheroids comprised of malignant cells, endothelial cells and mesenchymal stem cells served as an in vitro model for human solid tumors. This model system incorporates physiologically relevant features and patient-derived or established malignant cell lines with clinically relevant genetic alterations from many tumor types. Twenty-six patient-derived or established malignant cell lines were evaluated representing sarcoma, melanoma, small cell lung cancer (SCLC), non-small cell lung cancer (NSCLC), as well as bladder, ovarian and pancreatic cancers. The concentration ranges selected for each drug and investigational agent were based upon clinically achievable concentrations if the clinical Cmax of the agent was known.
Compounds. The drugs and compounds olaparib (NSC753686), talazoparib (NSC767125), berzosertib (NSC777718), elimusertib (NSC800525), nedisertib (NSC802822), VX-984 (NSC792969), AZD-1390 (NSC803789), temozolomide (NSC362856), topotecan (NSC609699), trabectedin (NSC813783), staurosporine (NSC755774), and gemcitabine (NSC613327) were obtained from the National Cancer Institute (NCI) Developmental Therapeutics Program Chemical Repository. The FDA-approved anticancer drug set is available from the Developmental Therapeutics Program at https://dtp.cancer.gov/organization/dscb/obtaining/available_plates.htm. […] The stock solutions were prepared in dimethyl sulfoxide (DMSO, Sigma-Aldrich, St. Louis, MO, cat. D2650) at 400-fold the tested concentration and stored at -70 degrees C. Prior to their use, the stock solutions were diluted in fresh medium and the final DMSO concentration in the assay was 0.25% (v/v). All drugs and investigational agents were tested over a range starting from a high concentration at or near the clinical Cmax and decreasing in half-log increments. If the clinical Cmax for an agent had not been determined, the highest concentration tested was 10 microM.
Cell Lines. The patient-derived cancer cell (PDC) lines: 156681-154-R-J1-PDC, 283228-195-R-J1-PDC, 287954-098-R-J1-PDC, 292921-168-R-J2-PDC, 349418-098-R-PDC, 425362-245-T-J1-PDC, 556581-035-R-J1-PDC, and BL0293-F563-PDC were received from the NCI Patient-Derived Models Repository (PDMR, https://pdmr.cancer.gov). The established cell lines HS-SY-2 (RRID:CVCL_8719), MPNST, and SYO-1 (RRID:CVCL_7146) were obtained from the Sloan Kettering Institute. The alveolar soft parts sarcoma cell line ASPS-1 (RRID:CVCL_S738) was established at the NCI and grown from internal seed stocks. The following established cell lines were purchased from the American Type Culture Collection (ATCC, Manassas, VA): G-401 (ATCC, cat. CRL-1441, RRID:CVCL_0270), SW982 (ATCC, cat. HTB-93, RRID:CVCL_1734), VA-ES-BJ (ATCC, cat. CRL-2138, RRID:CVCL_1785), NCI-H719 (ATCC, cat. CRL-5837, RRID:CVCL_1582), NCI-H196 (ATCC, cat. CRL-5823, RRID:CVCL_1509), NCI-H841 (ATCC, cat. CRL-5845, RRID:CVCL_1595), NCI-H1618 (ATCC, cat. CRL-5879, RRID:CVCL_1480), NCI-H1876 (ATCC, cat. CRL-5902, RRID:CVCL_1503), DMS 114 (ATCC, cat. CRL-2066; RRID:CVCL_1174), NCI-H211 (ATCC, cat. CRL-5824; RRID:CVCL_1529), and SW 1271 (ATCC, cat. CRL-2177, RRID:CVCL_1716). The small cell lung cancer cell line COR-L88 was purchased from Sigma-Aldrich (cat. 92031917-1VL, RRID:CVCL_1141). The non-small cell lung cancer cell lines NCI-H226 (RRID:CVCL_1544) and NCI-H322M (RRID:CVCL_1557) were established at the NCI and grown from internal seed stocks. Pooled donor human umbilical vein endothelial cells (HUVEC, Lonza, cat. CC-2519) and human mesenchymal stem cells (hMSC, Lonza, cat. PT-2501) were purchased from Lonza (Walkersville, MD).
Cell Culture. All cells were maintained in an incubator at 37 degrees C and 5% CO2 with 95% humidity. […]

**Q.** Which IC50 (second compound 0.003 µM) does the source give for `Cc1cc(C)c(CNC(=O)c2cc(-c3ccc(CN4CCOCC4)cc3)cc3c2cnn3C2CCCC2)c(=O)[nH]1` + CC[C@@]1(O)C(=O)OCc2c1cc1n(c2=O)Cc2cc3c(CN(C)C)c(O)ccc3nc2-1 here?
**A.** > 10 µM

**Q.** And the IC50 (second compound 0.00949 µM)?
**A.** > 10 µM

**Q.** What about the IC50 (second compound 0.03 µM) of the same compound?
**A.** > 10 µM

**Q.** What about the IC50 (second compound 0.0949 µM) of the same compound?
**A.** 0.777 µM

**Q.** And the IC50 (second compound 0.3 µM)?
**A.** < 0.0316 µM

**Q.** What about the viability, T/C (second compound 0.003 µM, first compound 0.0316 µM) of the same compound?
**A.** 100%

**Q.** And the viability, T/C (second compound 0.003 µM, first compound 0.1 µM)?
**A.** 106%

**Q.** What about the viability, T/C (second compound 0.003 µM, first compound 0.316 µM) of the same compound?
**A.** 94.2%

**Q.** What about the viability, T/C (second compound 0.003 µM, first compound 1 µM) of the same compound?
**A.** 93.7%

**Q.** What about the viability, T/C (second compound 0.003 µM, first compound 3.16 µM) of the same compound?
**A.** 85.2%

**Q.** And the viability, T/C (second compound 0.003 µM, first compound 10 µM)?
**A.** 81.2%

**Q.** What about the viability, T/C (second compound 0.00949 µM, first compound 0.0316 µM) of the same compound?
**A.** 107%

**Q.** And the viability, T/C (second compound 0.00949 µM, first compound 0.1 µM)?
**A.** 114%

**Q.** And the viability, T/C (second compound 0.00949 µM, first compound 0.316 µM)?
**A.** 107%

**Q.** What about the viability, T/C (second compound 0.00949 µM, first compound 1 µM) of the same compound?
**A.** 95.2%

**Q.** And the viability, T/C (second compound 0.00949 µM, first compound 3.16 µM)?
**A.** 87.2%

**Q.** And the viability, T/C (second compound 0.00949 µM, first compound 10 µM)?
**A.** 77.8%

**Q.** What about the viability, T/C (second compound 0.03 µM, first compound 0.0316 µM) of the same compound?
**A.** 95.8%

**Q.** And the viability, T/C (second compound 0.03 µM, first compound 0.1 µM)?
**A.** 98.7%

**Q.** And the viability, T/C (second compound 0.03 µM, first compound 0.316 µM)?
**A.** 89.9%

**Q.** What about the viability, T/C (second compound 0.03 µM, first compound 1 µM) of the same compound?
**A.** 79.9%

**Q.** And the viability, T/C (second compound 0.03 µM, first compound 3.16 µM)?
**A.** 66%

**Q.** What about the viability, T/C (second compound 0.03 µM, first compound 10 µM) of the same compound?
**A.** 74%

**Q.** And the viability, T/C (second compound 0.0949 µM, first compound 0.0316 µM)?
**A.** 59%

**Q.** What about the viability, T/C (second compound 0.0949 µM, first compound 0.1 µM) of the same compound?
**A.** 55.3%

**Q.** And the viability, T/C (second compound 0.0949 µM, first compound 0.316 µM)?
**A.** 52.3%

**Q.** What about the viability, T/C (second compound 0.0949 µM, first compound 1 µM) of the same compound?
**A.** 46.2%

**Q.** And the viability, T/C (second compound 0.0949 µM, first compound 3.16 µM)?
**A.** 46.5%

**Q.** And the viability, T/C (second compound 0.0949 µM, first compound 10 µM)?
**A.** 52.8%

**Q.** What about the viability, T/C (second compound 0.3 µM, first compound 0.0316 µM) of the same compound?
**A.** 49.5%

**Q.** And the viability, T/C (second compound 0.3 µM, first compound 0.1 µM)?
**A.** 47%

**Q.** And the viability, T/C (second compound 0.3 µM, first compound 0.316 µM)?
**A.** 44.4%

**Q.** What about the viability, T/C (second compound 0.3 µM, first compound 1 µM) of the same compound?
**A.** 45.6%

**Q.** What about the viability, T/C (second compound 0.3 µM, first compound 3.16 µM) of the same compound?
**A.** 46.4%

**Q.** And the viability, T/C (second compound 0.3 µM, first compound 10 µM)?
**A.** 56.9%

**Q.** For `Cc1sc2c(c1C)C(c1ccc(Cl)cc1)=NC(CC(=O)Nc1ccc(O)cc1)c1nnc(C)n1-2` (stereo not given) + CC[C@@]1(O)C(=O)OCc2c1cc1n(c2=O)Cc2cc3c(CN(C)C)c(O)ccc3nc2-1, which IC50 (second compound 0.003 µM) is on record?
**A.** > 3 µM

**Q.** And the IC50 (second compound 0.00949 µM)?
**A.** > 3 µM

**Q.** And the IC50 (second compound 0.03 µM)?
**A.** > 3 µM

**Q.** What about the IC50 (second compound 0.0949 µM) of the same compound?
**A.** > 3 µM

**Q.** And the IC50 (second compound 0.3 µM)?
**A.** 0.55 µM

**Q.** What about the viability, T/C (second compound 0.003 µM, first compound 0.00949 µM) of the same compound?
**A.** 105%

**Q.** What about the viability, T/C (second compound 0.003 µM, first compound 0.03 µM) of the same compound?
**A.** 111%

**Q.** What about the viability, T/C (second compound 0.003 µM, first compound 0.0949 µM) of the same compound?
**A.** 106%

**Q.** What about the viability, T/C (second compound 0.003 µM, first compound 0.3 µM) of the same compound?
**A.** 107%

**Q.** And the viability, T/C (second compound 0.003 µM, first compound 0.949 µM)?
**A.** 94.4%

**Q.** And the viability, T/C (second compound 0.003 µM, first compound 3 µM)?
**A.** 84.2%

**Q.** And the viability, T/C (second compound 0.00949 µM, first compound 0.00949 µM)?
**A.** 114%

**Q.** What about the outcome (second compound 0.00949 µM, first compound 0.03 µM) of the same compound?
**A.** inactive

**Q.** What about the viability, T/C (second compound 0.00949 µM, first compound 0.0949 µM) of the same compound?
**A.** 118%

**Q.** What about the viability, T/C (second compound 0.00949 µM, first compound 0.3 µM) of the same compound?
**A.** 109%

**Q.** What about the viability, T/C (second compound 0.00949 µM, first compound 0.949 µM) of the same compound?
**A.** 97.8%

**Q.** And the viability, T/C (second compound 0.00949 µM, first compound 3 µM)?
**A.** 88.5%

**Q.** What about the viability, T/C (second compound 0.03 µM, first compound 0.00949 µM) of the same compound?
**A.** 100%

**Q.** And the viability, T/C (second compound 0.03 µM, first compound 0.03 µM)?
**A.** 105%

**Q.** What about the viability, T/C (second compound 0.03 µM, first compound 0.0949 µM) of the same compound?
**A.** 102%

**Q.** What about the viability, T/C (second compound 0.03 µM, first compound 0.3 µM) of the same compound?
**A.** 94.4%

**Q.** And the viability, T/C (second compound 0.03 µM, first compound 0.949 µM)?
**A.** 89.6%

**Q.** What about the viability, T/C (second compound 0.03 µM, first compound 3 µM) of the same compound?
**A.** 77.4%

**Q.** And the viability, T/C (second compound 0.0949 µM, first compound 0.00949 µM)?
**A.** 64.2%

**Q.** And the viability, T/C (second compound 0.0949 µM, first compound 0.03 µM)?
**A.** 71.7%

**Q.** What about the viability, T/C (second compound 0.0949 µM, first compound 0.0949 µM) of the same compound?
**A.** 77.2%

**Q.** And the viability, T/C (second compound 0.0949 µM, first compound 0.3 µM)?
**A.** 71.2%

**Q.** What about the viability, T/C (second compound 0.0949 µM, first compound 0.949 µM) of the same compound?
**A.** 66.9%

**Q.** And the viability, T/C (second compound 0.0949 µM, first compound 3 µM)?
**A.** 58.8%

**Q.** What about the viability, T/C (second compound 0.3 µM, first compound 0.00949 µM) of the same compound?
**A.** 52.1%

**Q.** And the viability, T/C (second compound 0.3 µM, first compound 0.03 µM)?
**A.** 55.2%

**Q.** And the viability, T/C (second compound 0.3 µM, first compound 0.0949 µM)?
**A.** 58.7%

**Q.** What about the viability, T/C (second compound 0.3 µM, first compound 0.3 µM) of the same compound?
**A.** 55.3%

**Q.** And the viability, T/C (second compound 0.3 µM, first compound 0.949 µM)?
**A.** 44.5%

**Q.** What about the viability, T/C (second compound 0.3 µM, first compound 3 µM) of the same compound?
**A.** 33.7%

Reference: PubChem BioAssay AID1845200 (Molecular Pharmacology Branch, DTP, NCI, 2023)
